In patent US20190083573A1, “DESIGNER RECEPTORS FOR […] AND METHODS OF USE THEREOF” (The Board of Trustees of the Leland Stanford Junior …, priority 2016, published 2019):

Key:
hM4D(Gi) [1] = target: T1, hM4D(Gi) (Homo sapiens, UniProt P08173, A203G/Y113C); test: Thermal withdrawal testing (Hargreaves) after intraperitoneal CNO in hM4D(Gi) mice; type: in vivo; conditions: 10 mg/kg CNO i.p.
T1 construct: HA (N); expressed in transfected cells; host or cells: mouse sciatic-nerve primary afferent nociceptors, transduced in vivo with AAV6 under the hSyn promoter
T1 sequence (P08173 1-479 Y113C/A203G): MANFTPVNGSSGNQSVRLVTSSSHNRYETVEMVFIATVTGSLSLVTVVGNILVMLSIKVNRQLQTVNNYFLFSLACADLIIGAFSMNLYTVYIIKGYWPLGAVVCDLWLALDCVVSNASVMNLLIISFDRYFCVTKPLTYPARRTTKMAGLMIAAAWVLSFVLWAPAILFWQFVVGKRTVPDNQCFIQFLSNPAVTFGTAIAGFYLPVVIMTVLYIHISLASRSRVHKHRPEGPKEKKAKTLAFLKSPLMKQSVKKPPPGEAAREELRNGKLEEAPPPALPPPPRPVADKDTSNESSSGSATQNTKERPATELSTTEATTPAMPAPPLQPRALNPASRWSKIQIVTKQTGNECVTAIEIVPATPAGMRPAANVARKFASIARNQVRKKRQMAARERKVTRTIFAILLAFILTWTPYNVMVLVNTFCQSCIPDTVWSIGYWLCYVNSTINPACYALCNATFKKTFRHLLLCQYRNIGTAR
Protocol: (§1) 6-8 week old mice were anesthetized with 2% isoflurane, the thigh region was cleaned and sterilized, and then the sciatic nerve was exposed. A 35 G needle was inserted into the nerve, and 2-5 μl of AAV6-hSyn-HA-hM4D-IRES-mCitrine was injected into the nerve, at the rate of 1 μl/min. The cavity was then closed, analgesics were administered, and the recovery of the mice was observed. In some experiments, mice were co-injected with 3 μl of AAV6-hSyn-ChR2-YFP, to allow for analysis of chemogenetic inhibition of optogenetically evoked pain response.
(§2) Mice were tested 3-5 weeks after intraneural injection. Mice were placed on a Hargreaves apparatus, and allowed to habituate for 1 hour. Thermal withdrawal latencies were then obtained. Mice were then briefly anesthetized with isoflurane, and injected intra-peritoneally with 100 μl of clozapine-N-oxide (for an effective dose of 10 mg/kg) or 100 μl of saline. Post-injection testing was done in a blinded manner, with thermal withdrawal latencies collected at 45-120 minutes post-injection. Data were then unblinded, and statistical significance assessed using the Student's t-test.

hM4D(Gi) [2] = target: T1, hM4D(Gi); test: Optical withdrawal testing after CNO in hM4D+/ChR2+ mice; type: in vivo; conditions: 10 mg/kg CNO i.p., 60 min after administration, n=5 mice
Protocol: as §1
In mice that were co-injected with AAV6-hSyn-HA-hM4D-IRES-mCitrine and AAV6-hSyn-ChR2-YFP optical withdrawal testing was performed 2-3 weeks post injection. Mice were placed on a glass surface and allowed to habituate for 30-45 minutes. A 473 nm laser was connected to a fiber optic cable, and used to illuminate the paw regions of the mice at varying light intensities. Mice responded to the blue light with characteristic pain-signs, engaging in paw withdrawal, shaking, and licking. […] This value was termed the ‘optical withdrawal threshold’. Due to variation in the effective illumination spot, the optical withdrawal threshold was measured in total illuminated output (in mW), rather than in mW/mm^2. […] Data were then unblinded, and statistical significance assessed using the Student's t-test.

hM4D(Gi) [3] = target: T1, hM4D(Gi); test: Mechanical withdrawal testing (von Frey) after intraperitoneal CNO in mice expressing hM4D; type: in vivo; conditions: mice expressing hM4D receptor, 10 mg/kg CNO i.p., 60 min after administration, n=10 paws
Protocol: as §1
as §2, with “von Frey” for “Hargreaves”, “Mechanical” for “Thermal”, “thresholds” for “latencies”, “obtained using the up-down method of testing.” for “then obtained.”, “mechanical” for “thermal”

[4] = Effect of other analgesics on the light intensity required for a pain-related response (optical withdrawal testing); type: in vivo; conditions: mice, blinded experiments
Protocol: In mice that were co-injected with AAV6-hSyn-HA-hM4D-IRES-mCitrine and AAV6-hSyn-ChR2-YFP optical withdrawal testing was performed 2-3 weeks post injection. Mice were placed on a glass surface and allowed to habituate for 30-45 minutes. A 473 nm laser was connected to a fiber optic cable, and used to illuminate the paw regions of the mice at varying light intensities. Mice responded to the blue light with characteristic pain-signs, engaging in paw withdrawal, shaking, and licking. […] This value was termed the ‘optical withdrawal threshold’. Due to variation in the effective illumination spot, the optical withdrawal threshold was measured in total illuminated output (in mW), rather than in mW/mm^2. Mice were then briefly anesthetized with isoflurane, and injected intra-peritoneally with 100 μl of clozapine-N-oxide (for an effective dose of 10 mg/kg) or 100 μl of saline. Post-injection testing was done in a blinded manner, with optical withdrawal thresholds collected at 60-90 minutes. Data were then unblinded, and statistical significance assessed using the Student's t-test.

primary afferents [5] = conditions: previously reported optogenetic inhibition of primary afferents; cited from earlier work
primary afferents [6] = conditions: previously observed optogenetic inhibition of thermal perception; cited from earlier work

With `C[N+]1([O-])CCN(C2=Nc3cc(Cl)ccc3Nc3ccccc32)CC1` [CNO, clozapine-N-oxide] the “effect size, thermal thresholds” value (hM4D(Gi) [1]; 60 minutes post-injection) was 1.903, the “increase in thermal thresholds” value (hM4D(Gi) [1]; 60 minutes post-injection) was 61% and the “effect size, thermal thresholds” value (hM4D(Gi) [1]; 90 minutes post-injection) was 2.2245. For the same molecule, the “increase in thermal thresholds” value (hM4D(Gi) [1]; 90 minutes post-injection) was 54%, the “effect size, optical withdrawal threshold” value (hM4D(Gi) [2]) was 1.603 and the “increase in required light intensity to achieve a pain-related response (optical withdrawal threshold)” value (hM4D(Gi) [2]) was 418%. For the same molecule, the “effect size, mechanical withdrawal thresholds” value (hM4D(Gi) [3]) was 1.3 and the “increase in mechanical withdrawal thresholds” value (hM4D(Gi) [3]) was 45%.

In the case of `NCC1(CC(=O)O)CCCCC1` [gabapentin], the “effect on optical light sensitivity” value [4] is reported as “strong effects”.

B1: NpHR: hyperpolarizing light-activatable polypeptide used for optogenetic inhibition (protein, UniProt P15647 1-291, looked up)
Halorhodopsin: MTETLPPVTESAVALQAEVTQRELFEFVLNDPLLASSLYINIALAGLSILLFVFMTRGLDDPRAKLIAVSTILVPVVSIASYTGLASGLTISVLEMPAGHFAEGSSVMLGGEEVDGVVTMWGRYLTWALSTPMILLALGLLAGSNATKLFTAITFDIAMCVTGLAAALTTSSHLMRWFWYAISCACFLVVLYILLVEWAQDAKAAGTADMFNTLKLLTVVMWLGYPIVWALGVEGIAVLPVGVTSWGYSFLDIVAKYIFAFLLLNYLTSNESVVSGSILDVPSASGTPADD
In the case of B1, the “effect size of inhibition, mechanical” value (primary afferents [5]) is listed as 0.802 and the “effect size of inhibition, thermal perception” value (primary afferents [6]) is listed as 2.05.
